Assay results as given in patent US20230123585A1, “COMPOSITIONS AND METHODS FOR TREATING OR PREVENTING CANCER USING DEUBIQUITINASE INHIBITORS” (The University of Chicago, priority 2020, published 2023).

What was measured:
[1] = test system: A375 and HCT-116 stable transfectants; experiment: Cell viability by SRB assay of A375 and HCT-116 stable transfectants treated with USP5 inhibitors; type: cell-based; conditions: A375 1 μM, HCT-116 2 μM EOAI, 48 hr
Experimental: FIGS. 6A-6H: Phosphorylation of the m^6A Methyltransferase Complex May Affect Tumorigenesis. (A) Lysates of A375 stable transfectants harvested at different time points after treatment with cycloheximide (CHX) 10 μg/ml were analyzed by immunoblot. (B) LC-MS/MS quantification of the m^6A/A ratio in mRNA of A375 stable transfectants. (C) After 8 h treatment with 10 μM PD0325901 or 0.1 μM tramentib, cell lysates from A375 cells were analyzed by immunoblot. (D) LC-MS/MS quantification of the m^6A/A ratio in mRNA of A375 cells treated with 10 μM PD0325901 or 0.1 μM tramentib for 48 h. (E) After 8hr treatment with 10 μM EOAI3402143 (EOAI) or 30 μM vialinin A , cell lysates from A375 cells were analyzed by immunoblot. […] (H) LC-MS/MS quantification of the m^6A/A ratio in mRNA of SKBR3 and BT474 cells treated with 1 μM tucatinib and 1 μM lapatinib for 48 h. […]
FIGS. 14A-14I: Phosphorylation of the m^6A Methyltransferase Complex May Affect Tumorigenesis. […] (B) LC-MS/MS quantification of the m^6A/A ratio in mRNA of melanoma cell lines. (C) After 8 h treatment with 10 μM PD0325901 or 0.1 μM tramentib, cell lysates from HCT-116 cells were analyzed by immunoblot. […] The ubiquitination of METTL3 was detected by IP with anti-METTL3 and immunoblot with anti-HA. (F) After 8 hr treatment with 10 μM EOAI3402143 (EOAI) or 30 μM vialinin A, cell lysates from HCT-116 cells were analyzed by immunoblot. […]

[2] = test system: METTL3 / m^6A methyltransferase complex in A375 cells; experiment: Immunoblot of METTL3 / m^6A methyltransferase complex protein in A375 cell lysates; type: cell-based, human; conditions: A375 cells (also HCT-116, FIG. 14F), 8 hr, 10 μM EOAI3402143 or 30 μM vialinin A
Experimental: FIGS. 6A-6H: Phosphorylation of the m^6A Methyltransferase Complex May Affect Tumorigenesis. (A) Lysates of A375 stable transfectants harvested at different time points after treatment with cycloheximide (CHX) 10 μg/ml were analyzed by immunoblot. (B) LC-MS/MS quantification of the m^6A/A ratio in mRNA of A375 stable transfectants. (C) After 8 h treatment with 10 μM PD0325901 or 0.1 μM tramentib, cell lysates from A375 cells were analyzed by immunoblot. (D) LC-MS/MS quantification of the m^6A/A ratio in mRNA of A375 cells treated with 10 μM PD0325901 or 0.1 μM tramentib for 48 h. (E) After 8hr treatment with 10 μM EOAI3402143 (EOAI) or 30 μM vialinin A , cell lysates from A375 cells were analyzed by immunoblot. (F) A375 stable transfectants as indicated were treated with 3 μM EOAI3402143 (EOAI) or 10 μM vialinin A before measuring cell viability by SRB assay. Data are presented as relative to the R-WT cells without drug treatment (n=3 per group, data represent mean±SEM). (G) Immunofluorescence analysis of METTL3 (green) in SKBR3 cells treated with 1 μM tucatinib and 1 μM lapatinib for 8 hr. DAPI (blue) was used to mark the nucleus. (H) LC-MS/MS quantification of the m^6A/A ratio in mRNA of SKBR3 and BT474 cells treated with 1 μM tucatinib and 1 μM lapatinib for 48 h. (See also FIG. 14.)
(§1) FIGS. 11A-11G: USP5 is Required for ERK-Mediated METTL3 Stabilization. (A) A375 cells transfected with HA-ubiquitin (ub) were treated with 10 μM MG-132 and MEK inhibitor PD0325901 for 8 h. The ubiquitination of METTL3 was detected by IP with anti-METTL3 and immunoblot with anti-HA. (B) After 8 h treatment with 10 μM PD0325901 with or without 10 μM MG-132, cell lysates from A375 cells were analyzed by immunoblot. (C) A375 cells were treated with various concentrations of PD0325901 for 1 h. Cell lysates were subjected to IP with METTL3 antibody followed by immunoblot. (D) 293T cells transfected as indicated were subjected to IP/immunoblot analysis. (E) Immunofluorescence analysis of myc-METTL3 (green) in mESC stable transfectants. DAPI (blue) was used to mark the nucleus. (F) Lysates of 293T cells transfected as indicated were subjected to IP with anti-Flag antibody followed by immunoblot. (G) Immunofluorescence analysis of 293T cells co-transfected with myc-METTL3 (green), Flag-USP5 (red) with or without constitutively active B-RAF.
Immunoprecipitation, immunoblotting, and in vitro kinase assay. Immunoprecipitation (IP) and immunoblotting (IB) were performed as previously described (Sun et al., 2016). In brief, protein samples were isolated from respective cells by lysis in RIPA buffer (1% Triton X-100, 150 mM NaCl, 20 mM Na2PO4, pH 7.4) containing Halt Protease and Phosphatase Inhibitor Cocktail (Thermo Scientific). Subsequently, a BCA assay (Thermo Scientific) was used to determine the protein concentrations. For IP, indicated antibody and protein A/G magnetic beads (Thermo Scientific) were incubated with lysate at 4° C. overnight followed by washing and elution with sample buffer. Equal amounts of protein were separated by SDS-PAGE followed by wet transfer to PVDF membranes. Blots were blocked with 5% non-fat milk or BSA and incubated with respective primary antibody at 4° C. overnight. Primary antibodies were detected by HRP-linked secondary antibodies (Cell Signaling) together with SuperSignal West Pico Plus chemiluminescent substrate (Thermo Scientific) and imaged in a FluorChem R system (ProteinSimple).

[3] = test system: ubiquitination of METTL3; experiment: Ubiquitination of METTL3 in A375 cells transfected with HA-ubiquitin (IP anti-METTL3, immunoblot anti-HA); type: cell-based, human; conditions: 10 μM MG-132 and 10 μM EOAI3402143 or 30 μM vialinin A for 8 h
Experimental: as §1
FIGS. 14A-14I: Phosphorylation of the m^6A Methyltransferase Complex May Affect Tumorigenesis. […] (B) LC-MS/MS quantification of the m^6A/A ratio in mRNA of melanoma cell lines. (C) After 8 h treatment with 10 μM PD0325901 or 0.1 μM tramentib, cell lysates from HCT-116 cells were analyzed by immunoblot. […] The ubiquitination of METTL3 was detected by IP with anti-METTL3 and immunoblot with anti-HA. (F) After 8 hr treatment with 10 μM EOAI3402143 (EOAI) or 30 μM vialinin A, cell lysates from HCT-116 cells were analyzed by immunoblot. […] (I) LC-MS/MS quantification of the m^6A/A ratio in mRNA of breast cancer cell lines.
Immunoprecipitation, immunoblotting, and in vitro kinase assay. […] Primary antibodies were detected by HRP-linked secondary antibodies (Cell Signaling) together with SuperSignal West Pico Plus chemiluminescent substrate (Thermo Scientific) and imaged in a FluorChem R system (ProteinSimple).

[4] = test system: A375 and HCT116 cells; experiment: Cell viability by SRB assay of A375 and HCT116 cells treated with Ezh2 inhibitors without or with EOAI; type: cell-based; conditions: 48 hr; A375: GSK343 10 μM, UNC1999 5 μM, 0.5 μM EOAI; HCT116: GSK343 10 μM, UNC1999 10 μM, 1 μM EOAI
Experimental: FIGS. 20A-20B: (A) A375 cells were treated with GSK343 10 μM, UNC1999 5μM without or with 0.5 μM EOAI3402143 (EOAI) for 48 hr before measuring cell viability by SRB assay. Data are presented as relative to the R-WT cells without drug treatment (n=3 per group, data represent mean±SEM). (B) HCT116 cells were treated with GSK343 10 μM, UNC1999 10 μM without or with 1 μM EOAI3402143 (EOAI) for 48 hr before measuring cell viability by SRB assay. Data are presented as relative to the R-WT cells without drug treatment (n=3 per group, data represent mean±SEM).
Cell Proliferation Assay. Cells were seeded in 96-well plates. The cell proliferation was assessed by SRB assay (Vichai and Kirtikara, 2006) at various time points. Briefly, cells after treatments were fixed with 10% TCA then stained with 0.05% SRB. After wash, bound SRB was solubilized with 10 mM Trizma base and measured at 515 nm.

Row | SMILES | effect of knockdown of METTL3 on sensitivity of cells to the USP5 inhibitor [1] | effect of overexpression of METTL3 on sensitivity of cells to the USP5 inhibitor [1] | METTL3 protein level [2] | ubiquitination of METTL3 [3] | combination effect on cell viability with the USP5 inhibitor EOAI [4]
1 | CCCC(NC(=O)/C(C#N)=C/c1nc(Cl)ccc1Cl)c1ccc(OCCN2CCOCC2)cc1 (stereo not drawn) [EOAI3402143] | sensitized | attenuated | decreased | increased | –
2 | CCCc1cc(C)[nH]c(=O)c1CNC(=O)c1cc(-c2ccc(N3CCN(C(C)C)CC3)nc2)cc2c1cnn2C(C)C [UNC199] | – | – | – | – | synergism
3 | CCCc1cc(C)[nH]c(=O)c1CNC(=O)c1cc(-c2ccnc(N3CCN(C)CC3)c2)cc2c1cnn2C(C)C [GSK343] | – | – | – | – | synergism
